US6730679B1, “Pharmaceutical formulations” (SmithKline Beecham Corporation, priority 1996, dated 2004)

Assay: Aqueous solubility of the compound of formula (I)
Format: physicochemical
Description: Current formulations of HIV protease inhibitors for oral administration are in powder or tablet form. However, HIV protease inhibitors in these oral formulations are generally poorly soluble and, therefore, poorly bioavailable for the above reasons. […] In addition, the compound of formula (I) is poorly wetted. Therefore, formulating the compound using standard formulary techniques is difficult and leads in any event to a formulation with low bioavailability.

CC(C)CN(C[C@@H](O)[C@H](Cc1ccccc1)NC(=O)O[C@H]1CCOC1)S(=O)(=O)c1ccc(N)cc1 (relative stereo) [compound of formula (I), 3S-[3R*(1R*, 2S*)]-[3-[[(4-aminophenyl)sulphonyl](2-methylpropyl)-amino]-2-hydroxy-1-phenylmethyl)propyl]carbamic acid, tetrahydro-3-furanyl ester]
variation of aqueous solubility with pH (FIG. 1): does not significantly vary with pH
solubility (water (aqueous), room temperature): 95 µg/mL
